Laboratory results taken from paper PMC3711795 (Nature, 2012).

Key:
[1] = biological target: T1, HSC / FNT3 (hydrosulfide ion channel) (Clostridioides difficile, UniProt Q186B7); settings: 450 µM 14C-formate; pH 8.0; competing permeant anion, competitive
T1 sequence (Q186B7 2-258): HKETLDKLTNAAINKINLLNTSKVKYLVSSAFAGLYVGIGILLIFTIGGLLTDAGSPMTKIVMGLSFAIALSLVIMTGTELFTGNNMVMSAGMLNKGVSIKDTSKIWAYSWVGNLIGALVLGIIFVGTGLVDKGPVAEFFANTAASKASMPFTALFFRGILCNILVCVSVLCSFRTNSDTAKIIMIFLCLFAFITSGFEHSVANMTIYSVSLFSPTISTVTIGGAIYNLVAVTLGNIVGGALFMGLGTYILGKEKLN

[2] = biological target: hydrosulfide ion channel (HSC) from Clostridium difficile (Clostridium difficile strain 630); assay: crystal structure

Row | stoichiometry N [2] | Compound | % inhibition at 15 mM [1] [%]
1 |  | S [HS^−] | 90
2 |  | O=NO [nitrite] | 70
3 | 5 | hydrosulfide ion channel (HSC) from Clostridium difficile (natural protein) | 
